{"source": "patent US20250205135A1", "about": "“COMPOSICION DE EXTRACTOS VEGETALES PARA PALIAR LOS EFECTOS DEL ENVEJECIMIENTO O RETRASO DE LA SENESCENCIA CELULAR” (MONTELOEDER S.L., priority 2022, published 2025)", "system": "normal human dermal fibroblasts (NHDF)", "experiment": "MTT cell proliferation assay in fibroblasts pre-aged with H2O2", "assay_type": "cell-based", "details": "EGF 20 ng/ml positive control, after 3 hours H2O2 (500 μM)", "experimental": "For the cell proliferation assay, normal human dermal fibroblasts (NHDF) were exposed for 3 hours to conditioned ageing medium containing H2O2 (500 μM). After the incubation period, the medium was replaced with fresh medium containing composition A according to the invention at different concentrations for 96 hours. Epidermal growth factor (EGF, 20 ng/ml) was included as positive control and NHDF without pretreatment in H2O2 as non-aged control (Control). Cell viability was quantified using the MTT assay.", "data": [{"substance": "Epidermal growth factor [EGF]", "values": [{"measurement": "increase in cell viability compared to the aged control", "value": "+22.9%"}]}]}
